Measurements reported in patent US7888355B2, “Compositions and methods for inhibiting growth and metastasis of melanoma” (Burnham Institute for Medical Research, priority 2007, dated 2011).

Tests used:
[1] = test system: SW1 cells; assay: cells; format: cell-based, mouse; details: for Activity or EC50 (μM) in SW1 cells: active/inactive wording, concentration given in cell
Protocol: (§1) Cell lines. Mouse melanoma (SW1) and human melanoma (LU1205) cells were maintained in DMEM supplemented with 10% FBS, L-glutamine and antibiotics. The human melanoma cell lines MEWO and WM115 were maintained in RPMI supplemented with 10% FBS and antibiotics. Primary mouse melanocytes were cultured in F-12 media supplemented with 10% FBS, antibiotics, IBMX (isobuthyl-methylxantine), bovine pituitary extract, and TPA.
Mitochondrial activity and apoptosis. Cells were exposed to the chemicals for 12-48 hours as indicated in Results. To measure changes in mitochondrial activity reflective of general cell viability, the ATPLITE ATP detection assay was used according to the manufacturer's recommendations (Perkin Elmer). Apoptosis analysis was performed by flow cytometry of PI-stained cells. The percentage of cells to the left of the diploid G0/1 peak, characteristic of hypodiploid cells that have partially lost DNA, was calculated as percentage of apoptotic cells (Bhoumik et al., PNAS 101:4222-7, 2004). Analysis of changes in Caspase 8 expression pattern was performed using immunoblot analysis. […]
Characterization of CSL and AIGA effects on mouse melanoma cells. The structures of AIGA and CSL are depicted in FIGS. 1a and 1b. AIGA was tested for cytotoxicity at concentrations ranging between 0.1 and 2 μM, whereas CSL was used at a concentration of 0.01 to 0.3 μM. SW1 cells or normal melanocytes were seeded on 96 well plates and 24 h late, cells were treated with the indicated concentrations of ATF2 50-100 peptide, AIGA, or CSL for 20 h. ATF2 50-100 peptide (cloned in mammalian expression vector in frame with penetratin was transfected with the aid of lipofectamine) was used as a positive control. ATP levels were used as an indicator of cell viability and were measured using the ATPLITE ATP detection assay kit. The number of surviving cells upon AIGA treatment was normalized to the number of surviving cells under the control treatment, and the normalized number was designated as the “% Viability.” Results shown in FIGS. 1c-1f represent 3 experiments. Treatment of SW1 melanoma cells with 1 μM of AIGA reduced the viability of melanoma cells to 10%, (FIG. 1c). Treatment of the SW1 cells with 0.05 μM of CSL reduced the viability of melanoma cells to 50%, and 0.1 μM reduced it to 10% (FIG. 1d). […] Normal melanocytes and fibroblasts were used as a control.
Thus, the two compounds were evaluated to determine if they require JNK activity for their effects on melanoma cells. To this end, the ability of AIGA or CSL to affect the viability of melanoma cells in the presence of a JNK inhibitor was tested. SW1 cells, with or without a 30-minute pretreatment with the JNK inhibitor SP600125 (10 μM), were contacted with AIGA or CSL at the indicated concentrations for 20 h. ATP levels were used to measure the cell viability using the ATPLITE kit. The number of surviving cells upon AIGA or CSL treatment was normalized to the number of surviving cells under the control treatment, and the normalized number was designated as the “% Viability.” Shown are representative results from 2 experiments. […] Of note, inhibition of JNK activity was more pronounced at lower concentrations of CSL compared with AIGA. […] To assess whether these compounds affect JNK activity, changes in JNK phosphorylation on residues 183/185, which are required for its kinase activity, were monitored. Western blot analysis for JNK phosphorylation on residues 183/185 was performed on protein extracts that were prepared from cells treated with AIGA at concentrations of 0.5 μM, 1.0 μM, and 2.0 μM and a control with no AIGA treatment. Duplicate samples were treated with JNK inhibitor (SP600125). Total level of JNK was analyzed in parallel. […]

[2] = test system: WM115 cells; assay: WM115 melanoma cell viability; format: cell-based, human; details: active/inactive wording, concentration given in cell
Protocol: as §1
(§2) Mitochondrial activity and apoptosis. Cells were exposed to the chemicals for 12-48 hours as indicated in Results. To measure changes in mitochondrial activity reflective of general cell viability, the ATPLITE ATP detection assay was used according to the manufacturer's recommendations (Perkin Elmer). Apoptosis analysis was performed by flow cytometry of PI-stained cells. The percentage of cells to the left of the diploid G0/1 peak, characteristic of hypodiploid cells that have partially lost DNA, was calculated as percentage of apoptotic cells (Bhoumik et al., PNAS 101:4222-7, 2004). Analysis of changes in Caspase 8 expression pattern was performed using immunoblot analysis.
The effects of CSL and AIGA on the human melanoma cell lines WM115 and MEWO were assessed. AIGA reduced the viability of the human melanoma cultures when added at a concentration of 0.5-2 μM (FIG. 5a and FIG. 5c) whereas CSL reduced their viability at a concentration of 0.1 μM-2 μM in WM115 cells (FIG. 5b) and 0.05 μM-2 μM in MeWO cells (FIG. 5d).

[3] = test system: WM793 cells; assay: WM793 melanoma cell viability; format: cell-based, human; details: active/inactive wording, concentration given in cell
Protocol: as §2

[4] = test system: SW1 mouse melanoma; assay: SW1 metastatic lesions in syngeneic C3H mice; format: in vivo; details: SW1 cells s.c. in C3H mice
Protocol: (§3) Tumor growth and metastasis in vivo. GFP-expressing SW1 cells were trypsinized, resuspended in PBS, and injected subcutaneously (1×10^6) into the lower flank of 6 to 7-week-old mice. When tumors reached a size of about 50 mm^3, the indicated compounds (100 μL of the vehicle—10% DMSO, 70% Cremophor/ethanol (3:1), and 20% PBS and 1.0 mg/kg of celastrol or 0.5 mg/kg of the derivatives CA16, CA19) were injected i.p. every alternate day. Body weight and tumor growth were monitored every 2 days. GFP-expressing SW1 tumors were monitored in vivo on shaved mice with a light box illuminated by blue light fiber optics (Lightools Research; Encinitas, Calif.), and imaging was carried out with a digital camera (Nikon D100). Tumors were measured for up to 3 weeks. For metastases studies, LU1205 cells (1×10^6) were injected i.v. into the lateral tail vein of nude mice. At the end of the experiment, the lungs and tumors were excised and weighed. To detect metastatic lesions, lungs were fixed in formalin, embedded in paraffin and subjected to hematoxylin and eosin staining.
To further assess the impact of these compounds on the development of metastatic lesions, the SW1 mouse melanoma model using the syngeneic C3H strain was employed. Subcutaneous injection of SW1 cells results in tumor formation at the site of injection followed by metastasis to different sites within 6-8 weeks.

[5] = Tolerability of administration to mice; format: in vivo, mouse; details: daily administration, doses up to 1 mg/kg
Protocol: (§4) To assess the ability of CSL and CSL derivatives to affect the tumorigenicity and metastasis of melanoma, the mouse SW1 cell lines were used in syngeneic models. Injection of SW1 melanoma cells subcutaneously into C3H mice was followed by daily injections of CSL intraperitoneally (IP). […] Briefly, SW1 cells that stably express GFP were injected s.c into C3H mice. When the tumor reached the size of 50 mm^3, the vehicle, CSL (1 mg/kg), CA16 (0.5 mg/kg) or CA19 (0.5 mg/kg) were administered i.p, every second day for a period of 24 days. Tumor size was measured at the indicated times. Data presented in FIG. 6b represents two experiments.

[6] = test system: Human melanoma LU1205 cells; assay: LU1205 lung metastasis in nude mice; format: in vivo, mouse; details: compound every second day, analysis 60 days after injection
Protocol: as §3
The effect of CSL and CSL derivatives, CA16 and CA19, on the metastatic capacity of melanoma cells was then determined. Human melanoma LU1205 cells were injected into the tail vein of nude mice, followed by administration of the compounds every second day. This approach allows monitoring of changes in the number of lesions formed on the lungs, a primary organ for tumor cell growth under this experimental approach. Analysis performed 60 days following injection determined changes in the number and size of metastatic lesions in each of the experimental groups.

[7] = test system: SW1 tumors; assay: SW1 tumor growth in syngeneic C3H mice; format: in vivo, mouse; details: 0.5 mg/kg i.p. every second day for 24 days
Protocol: as §3, §4

COc1ccc(CNC(=O)C2(C)CCC3(C)CCC4(C)C5=CC=C6C(=CC(=O)C(O)=C6C)C5(C)CCC4(C)C3C2)cc1 (centres unmarked) [CA01]
Activity or EC50 (μM) in SW1 cells [1]: active

CC1=C(O)C(=O)C=C2C1=CC=C1C2(C)CCC2(C)C3CC(C)(C(=O)NCc4ccccc4)CCC3(C)CCC12C (centres unmarked) [CA02]
Activity or EC50 (μM) in WM115 cells [2]: inactive
Activity or EC50 (μM) in WM793 cells [3]: inactive
Activity or EC50 (μM) in SW1 cells [1]: inactive

CC1=C(O)C(=O)C=C2C1=CC=C1C2(C)CCC2(C)C3CC(C)(C(=O)NCc4cccnc4)CCC3(C)CCC12C (centres unmarked) [CA03]
Activity or EC50 (μM) in WM115 cells [2]: Inactive
Activity or EC50 (μM) in WM793 cells [3]: inactive
Activity or EC50 (μM) in SW1 cells [1]: active

CC1=C(O)C(=O)C=C2C1=CC=C1C2(C)CCC2(C)C3CC(C)(C(=O)NC(C)C)CCC3(C)CCC12C (centres unmarked) [CA04]
Activity or EC50 (μM) in WM793 cells [3]: inactive
Activity or EC50 (μM) in SW1 cells [1]: active

CC1=C(O)C(=O)C=C2C1=CC=C1C2(C)CCC2(C)C3CC(C)(C(=O)N(C)C)CCC3(C)CCC12C (centres unmarked) [CA05]
Activity or EC50 (μM) in WM793 cells [3]: inactive
Activity or EC50 (μM) in SW1 cells [1]: active

CC1=C(O)C(=O)C=C2C1=CC=C1C2(C)CCC2(C)C3CC(C)(C(=O)N4CCCC4)CCC3(C)CCC12C (centres unmarked) [CA06]
Activity or EC50 (μM) in SW1 cells [1]: active

COCCNC(=O)C1(C)CCC2(C)CCC3(C)C4=CC=C5C(=CC(=O)C(O)=C5C)C4(C)CCC3(C)C2C1 (centres unmarked) [CA07]
Activity or EC50 (μM) in WM115 cells [2]: inactive
Activity or EC50 (μM) in SW1 cells [1]: active

CC1=C(O)C(=O)C=C2C1=CC=C1C2(C)CCC2(C)C3CC(C)(C(=O)N4CCOCC4)CCC3(C)CCC12C (centres unmarked) [CA08]
Activity or EC50 (μM) in WM115 cells [2]: inactive
Activity or EC50 (μM) in WM793 cells [3]: inactive
Activity or EC50 (μM) in SW1 cells [1]: inactive

CNC(=O)C1(C)CCC2(C)CCC3(C)C4=CC=C5C(=CC(=O)C(O)=C5C)C4(C)CCC3(C)C2C1 (centres unmarked) [CA13]
Activity or EC50 (μM) in WM115 cells [2]: inactive
Activity or EC50 (μM) in WM793 cells [3]: inactive

CC1=C(O)C(=O)C=C2C1=CC=C1C2(C)CCC2(C)C3CC(C)(C(=O)N4CCN(C)CC4)CCC3(C)CCC12C (centres unmarked) [CA14]
Activity or EC50 (μM) in WM115 cells [2]: inactive
Activity or EC50 (μM) in WM793 cells [3]: inactive

COC(=O)COC(=O)C1(C)CCC2(C)CCC3(C)C4=CC=C5C(=CC(=O)C(O)=C5C)C4(C)CCC3(C)C2C1 (centres unmarked) [CA15]
Activity or EC50 (μM) in SW1 cells [1]: Inactive

CC1=C(O)C(=O)C=C2C1=CC=C1C2(C)CCC2(C)C3CC(C)(C(=O)OCc4ccccc4)CCC3(C)CCC12C (centres unmarked) [CA16]
development of small sized lesions [4]: opposite effect
metastatic lesions [4]: somewhat active
toxicity or discomfort in mice [5]: did not result in toxicity or any noticeable discomfort
1-2 mm and mediastinal lesions [6]: some activity was observed
development of large lung lesions [6]: no impact
decrease in tumor size [7]: about 50%

CCOC(=O)C1(C)CCC2(C)CCC3(C)C4=CC=C5C(=CC(=O)C(O)=C5C)C4(C)CCC3(C)C2C1 (centres unmarked) [CA18]
ability to induce melanoma cell death, in words ([1]; SW1 cells, compared with celastrol or other derivatives): not that efficient in the SW1 melanoma cells compared to CA19

CC1=C(O)C(=O)C=C2C1=CC=C1C2(C)CCC2(C)C3CC(C)(C(=O)OC(C)C)CCC3(C)CCC12C (centres unmarked) [CA19]
metastatic lesions [4]: potently exhibit the ability to inhibit large as well as small metastatic lesions, with the exception of the 1-2 mm range
toxicity or discomfort in mice [5]: did not result in toxicity or any noticeable discomfort
growth of large, medium and small sized lesions in the lungs [6]: efficient in inhibiting growth of large medium and small sized lesions in the lungs
reduction of tumor growth [7]: 5 fold

Cc1c(O)c(O)cc2c1CC=C1[C@@]2(C)CC[C@@]2(C)[C@@H]3C[C@](C)(C(=O)O)CC[C@]3(C)CC[C@]12C [Dihydrocelastrol, dihydrocelastrol, reference compound]
Activity or EC50 (μM) in SW1 cells [1]: inactive

COC(=O)[C@]1(C)CC[C@]2(C)CC[C@]3(C)C4=CC=C5C(=CC(=O)C(O)=C5C)[C@]4(C)CC[C@@]3(C)[C@@H]2C1 [Pristimerin, pristimerin, reference compound]
EC50 ([1]; Mus musculus, numeric EC50 cells of the column, read-out: Activity or EC50 (μM) in SW1 cells): < 0.1 µM
